Data from patent publication US10800791B2, “Triazole ACC inhibitors and uses thereof” (Gilead Apollo, LLC, priority 2015, dated 2020).
≈ marks a conversion by molar mass, not a printed value. Like-named read-outs stand apart in the source and are kept apart here.

What was measured:
[1] = tested on: Botrtyis cinerea (Bc); assay: Growth inhibition assay of fungal pathogens, Bc; assay type: cell-based; details: 48 h
Procedure, shortened: (§1)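 Spores from sub-cultured plates were diluted in 17% V8 liquid medium and exposed to compound from DMSO stocks at final concentrations of 50, 10 and 2 ppm or 2, 0.4 and 0.08 ppm. OD600 and visual ratings at 48 h were compared with the 2% DMSO control to give percent growth inhibition.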

[2] = tested on: C. albicans; assay: Antifungal Activity Assay (broth microtiter MIC), C. albicans; assay type: cell-based, Candida albicans; details: Candida albicans, ATCC90028, 48 h
Procedure, shortened: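 Endpoint: lowest concentration visibly inhibiting growth relative to control after 48 h. Inoculum of 2.5×10^3 CFU/mL final in RPMI 1640+MOPS, prepared from overnight 35° C agar cultures; test compounds diluted in water to 128 μg/mL before plating.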

[3] = tested on: Diplodia maydis (Dm); assay: Growth inhibition assay of fungal pathogens, Dm; assay type: cell-based; details: Stenocarpella maydis, 48 h
Procedure, shortened: as §1

[4] = Botrtyis cinerea, growth inhibition at 48 hours vs 2% DMSO control, read-out: Concentration at 90% Inhibition Bc
[5] = Botrtyis cinerea, growth inhibition vs 2% DMSO control at 48 hours, read-out: Concentration at 90% Inhibition Bc
[6] = Table 3a, ATCC 90028, 3 replicates, MIC recorded at 48 h, read-out: MIC, C. albicans ATCC 90028
[7] = Table 3b (additional results), ATCC 90028, 3 replicates, MIC recorded at 48 h, read-out: MIC, C. albicans ATCC 90028
[8] = Diplodia maydis, growth inhibition at 48 hours vs 2% DMSO control, read-out: Concentration at 90% Inhibition Dm
[9] = Diplodia maydis, growth inhibition vs 2% DMSO control at 48 hours, read-out: Concentration at 90% Inhibition Dm
[10] = read-out: Concentration at 90% Inhibition Bc, Botrtyis cinerea, growth inhibition at 48 hours vs 2% DMSO control
[11] = read-out: Concentration at 90% Inhibition Bc, Botrtyis cinerea, growth inhibition vs 2% DMSO control at 48 hours
[12] = read-out: MIC, C. albicans ATCC 90028, Table 3a, 3 replicates, MIC recorded at 48 h
[13] = read-out: MIC, C. albicans ATCC 90028, Table 3b (additional results), 3 replicates, MIC recorded at 48 h
[14] = read-out: Concentration at 90% Inhibition Dm, Diplodia maydis, growth inhibition at 48 hours vs 2% DMSO control
[15] = read-out: Concentration at 90% Inhibition Dm, Diplodia maydis, growth inhibition vs 2% DMSO control at 48 hours

SMILES | IC90 [1, 4] | IC90 [1, 5] | MIC [2, 6] | MIC [2, 7] | IC90 [3, 8] | IC90 [3, 9] | IC90 [1, 10] | IC90 [1, 11] | MIC [2, 12] | MIC [2, 13] | IC90 [3, 14] | IC90 [3, 15]
COc1ccc(F)cc1[C@H](Cn1c(=O)n([C@H](C)C(=O)N(C)C(C)C)c(=O)c2c(C)c(-n3nccn3)sc21)OCCO [Compound I-85, (R)-2-(1-((R)-2-(5-fluoro-2-methoxyphenyl)-2-(2-hydroxy-ethoxy)ethyl)-5-methyl-2,4-dioxo-6-(2H-1,2,3-triazol-2-yl)-1,4-dihydro-thieno[2,3-d]pyrimidin-3(2H)-yl)-N-isopropyl-N-methylpropanamide] | 2 µg/mL (≈ 3.4 µM) | 2 µg/mL (≈ 3.4 µM) | 0.25 to 1 µg/mL (≈ 0.425 to 1.7 µM) | 1.01 to 2 µg/mL (≈ 1.72 to 3.4 µM) | 0.08 µg/mL (≈ 0.136 µM) | 0.08 µg/mL (≈ 0.136 µM) |  |  |  |  |  | 
COc1ccc(F)cc1[C@H](Cn1c(=O)n(C(C)(C)C(N)=O)c(=O)c2c(C)c(-n3nccn3)sc21)OC1CCOCC1 [Compound I-1] | 2 µg/mL (≈ 3.41 µM) | 2 µg/mL (≈ 3.41 µM) | 0.25 to 1 µg/mL (≈ 0.426 to 1.7 µM) | 0.25 to 1 µg/mL (≈ 0.426 to 1.7 µM) | 2 µg/mL (≈ 3.41 µM) | 2 µg/mL (≈ 3.41 µM) |  |  |  |  |  | 
COc1ccc(F)cc1[C@H](Cn1c(=O)n(C(C)(C)C(=O)NC(C)C)c(=O)c2c(C)c(-n3nccn3)sc21)OC(C)C [Compound I-4, (R)-2-(1-(2-(5-fluoro-2-methoxyphenyl)-2-isopropoxyethyl)-5-methyl-2,4-dioxo-6-(2H-1,2,3-triazol-2-yl)-1,4-dihydrothieno[2,3-d]pyrimidin-3(2H)-yl)-N-isopropyl-2-methylpropanamide] |  |  |  |  |  |  | 0.08 µg/mL (≈ 0.136 µM) | 0.08 µg/mL (≈ 0.136 µM) | 0.25 to 1 µg/mL (≈ 0.426 to 1.7 µM) | 0.25 to 1 µg/mL (≈ 0.426 to 1.7 µM) | 0.08 µg/mL (≈ 0.136 µM) | 0.08 µg/mL (≈ 0.136 µM)
COc1ccc(F)cc1[C@H](Cn1c(=O)n(CC(=O)N2CCCC2)c(=O)c2c(C)c(-n3nccn3)sc21)OCCO [Compound I-81, (R)-1-(2-(5-fluoro-2-methoxyphenyl)-2-(2-hydroxy-ethoxy)ethyl)-5-methyl-3-(2-oxo-2-(pyrrolidin-1-yl)ethyl)-6-(2H-1,2,3-triazol-2-yl)thieno[2,3-d]pyrimidine-2,4(1H,3H)-dione] | 0.08 µg/mL (≈ 0.14 µM) | 0.08 µg/mL (≈ 0.14 µM) | 2.1 to 4 µg/mL (≈ 3.67 to 6.99 µM) | 2.01 to 4 µg/mL (≈ 3.51 to 6.99 µM) | 2 µg/mL (≈ 3.49 µM) | 2 µg/mL (≈ 3.49 µM) |  |  |  |  |  | 
COc1ccc(F)cc1[C@H](Cn1c(=O)n(C(C)(C)C(=O)N2CCCCC2)c(=O)c2c(C)c(-n3nccn3)sc21)OC(C)C [Compound I-6, (R)-1-(2-(5-fluoro-2-methoxyphenyl)-2-isopropoxyethyl)-5-methyl-3-(2-methyl-1-oxo-1-(piperidin-1-yl)propan-2-yl)-6-(2H-1,2,3-triazol-2-yl)thieno[2,3-d]pyrimidine-2,4(1H,3H)-dione] |  |  |  |  |  |  | 0.08 µg/mL (≈ 0.131 µM) | 0.08 µg/mL (≈ 0.131 µM) | 0.25 to 1 µg/mL (≈ 0.408 to 1.63 µM) | 0.25 to 1 µg/mL (≈ 0.408 to 1.63 µM) | 0.08 µg/mL (≈ 0.131 µM) | 0.08 µg/mL (≈ 0.131 µM)
COc1ccc(F)cc1[C@H](Cn1c(=O)n(C(C)(C)C(=O)NC(C)C)c(=O)c2c(C)c(-n3nccn3)sc21)OCCO [Compound I-43, (R)-2-(1-(2-(5-fluoro-2-methoxyphenyl)-2-(2-hydroxyethoxy)ethyl)-5-methyl-2,4-dioxo-6-(2H-1,2,3-triazol-2-yl)-1,4-dihydrothieno[2,3-d]pyrimidin-3(2H)-yl)-N-isopropyl-2-methylpropanamide] |  |  |  |  |  |  | 2 µg/mL (≈ 3.4 µM) | 2 µg/mL (≈ 3.4 µM) | 0.25 to 1 µg/mL (≈ 0.425 to 1.7 µM) | 0.25 to 1 µg/mL (≈ 0.425 to 1.7 µM) | 0.4 µg/mL (≈ 0.68 µM) | 0.4 µg/mL (≈ 0.68 µM)
COc1ccc(F)cc1[C@H](Cn1c(=O)n(C(C)(C)C(=O)N2CCCC2)c(=O)c2c(C)c(-n3nccn3)sc21)OC1CCC(=O)CC1 [Compound I-33, (R)-1-(2-(5-fluoro-2-methoxyphenyl)-2-((4-oxocyclo-hexyl)oxy)ethyl)-5-methyl-3-(2-methyl-1-oxo-1-(pyrrolidin-1-yl)propan-2-yl)-6-(2H-1,2,3-triazol-2-yl)thieno[2,3-d]pyrimidine-2,4(1H,3H)-dione] | 0.4 µg/mL (≈ 0.613 µM) | 0.4 µg/mL (≈ 0.613 µM) | 0.25 to 1 µg/mL (≈ 0.383 to 1.53 µM) | 0.25 to 1 µg/mL (≈ 0.383 to 1.53 µM) | 0.4 µg/mL (≈ 0.613 µM) | 0.4 µg/mL (≈ 0.613 µM) |  |  |  |  |  | 
